Earlier results, collected in paper PMC10329699, “Pharmacokinetics, biodistribution and toxicology of novel cell-penetrating peptides” (Scientific Reports, 2023).
Where two headings read alike, the source gives them in different places. Each block holds one compound with its values, some of them ahead of it.

Legend:
[1] = literature values for comparison
From the text: Considering their smaller size (up to 30 amino acids in length), cationic and/or amphipathic CPPs have a greater potential to penetrate the BBB than other transport systems. […] For the sake of comparison, a control IgG, an IgG binding ...

Compound: TAT
half-life (stability in human serum) (in vitro at 37 °C in human serum): 528 min

Clup (brain uptake coefficient), comparison values [1]: ≈ 1 µl g^−1 s^−1
Compound: OC[C@H]1OC(O)[C@H](O)[C@@H](O)[C@@H]1O (stereo partly drawn) [glucose]

half-life (stability in human serum) (human): 72 min
Compound: penetratin
